US9969742B2, “Imidazotriazinone compounds” (Ironwood Pharmaceuticals, Inc., priority 2012, dated 2018)
Read-outs that look alike come from different tables or passages of the source.

Biological target: T1, PDE9A2 (Homo sapiens, UniProt O76083)
T1 construct: purchased Reaction Biology Corporation, Malvern, Pa
Assay: Phosphodiesterase enzyme screening assay, PDE9A2
Type: biochemical
Settings: read-out: Band (PDE9A2 IC50)
Excerpt: Compounds of the invention were screened against PDE1A, PDE1B, PDE2A, PDE3A, PDE3B, PDE4A1A, PDE4B1, PDE4D3, PDE5A1, PDE6C, PDE7A, PDE8A1, PDE9A2, PDE10A2 AND PDE11A isoforms of the phosphodiesterase enzyme to determine activity and overall selectivity through comparative analysis. […] Where 8-methoxy-IBMX and Zaprinast were used as reference inhibitors.
The phosphodiesterase enzyme isoforms were obtained from a commercial retailer (Reaction Biology Corporation, Malvern, Pa.) for use in the instant screening assay.
The analysis was completed using the Caliper LabChip 3000 and a 12-sipper LabChip. LabChip assays are separations-based, meaning that the product and substrate are electrophoretically separated, thereby minimizing interferences and yielding the highest data quality available on any screening platform. […] High Z′ values, few false positives, few false negatives and analytical quality reproducibility are the reasons cited for the increasing reliance on the LabChip assays.
The off-chip incubation mobility-shift phosphodiesterase assay uses a microfluidic chip to measure the conversion of a fluorescent cyclic AMP substrate to a 5′-AMP product, or a cyclic GMP substrate to a 5′-GMP product. The reaction mixture, from a microtiter plate well, is introduced through a capillary sipper onto the chip, where the fluorescent substrate and product are separated by electrophoresis and detected via laser-induced fluorescence. […] The precision of microfluidics allows researchers to detect subtle interactions between drug candidates and therapeutic targets.
Reactions were carried out in 100 mM HEPES (pH 7.5), 5 mM MgCl2, 1 mM DTT, 0.003% Brij, 4.0 μM cGMP substrate. The reaction was started by addition of cGMP or cAMP and incubated for 1 hour at R.T. The reaction was terminated by the addition of stop buffer containing 100 mM HEPES (pH 7.5), 15 mM EDTA, 0.015% Brij-35, 5% DMSO. Cyclic AMP/GMP substrate and 5′-AMP/5′-GMP product were separated by charge using electrophoretic mobility shift. Product formed was compared to control wells to determine inhibition or enhancement of enzyme activity.
Data points were averages of quadruplicate wells and error bars represented the SEM for each point.

[1] = Table 2, 10 concentrations, 4.0 μM cGMP substrate, 1 hour at R.T.
[2] = Table 1, 10 concentrations, 4.0 μM cGMP substrate, 1 hour at R.T.
[3] = 4.0 μM cGMP substrate, 1 hour at R.T.

T1 sequence (O76083 1-533 isoform O76083-2): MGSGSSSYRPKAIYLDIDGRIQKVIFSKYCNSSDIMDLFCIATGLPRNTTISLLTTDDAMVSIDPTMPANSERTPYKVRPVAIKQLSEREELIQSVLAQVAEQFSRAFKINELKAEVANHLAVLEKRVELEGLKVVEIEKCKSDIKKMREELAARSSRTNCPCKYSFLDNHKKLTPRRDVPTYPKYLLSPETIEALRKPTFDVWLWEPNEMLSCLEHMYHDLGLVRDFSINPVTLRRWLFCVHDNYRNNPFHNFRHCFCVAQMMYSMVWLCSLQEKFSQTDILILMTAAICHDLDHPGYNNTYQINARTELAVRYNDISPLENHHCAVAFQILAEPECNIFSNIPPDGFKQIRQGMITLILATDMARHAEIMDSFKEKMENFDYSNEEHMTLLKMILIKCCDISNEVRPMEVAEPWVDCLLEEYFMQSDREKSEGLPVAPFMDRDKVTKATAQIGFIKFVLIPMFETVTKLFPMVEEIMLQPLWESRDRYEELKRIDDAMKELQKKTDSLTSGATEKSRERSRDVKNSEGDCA

Molecule | IC50 [2] | further results
CC1CN(C(=O)Cc2cncnc2)CC1c1nn2c(C3CCOCC3)ncc2c(=O)[nH]1 (single isomer, unassigned; (+)) [(+)-2-((3,4-trans)-4-methyl-1-(2-(pyrimidin-5-yl)acetyl)pyrrolidin-3-yl)-7-(tetrahydro-2H-pyran-4-yl)imidazo[5,1-f][1,2,4]triazin-4(3H)-one] |  | IC50 [1]: 1000 to 10000 nM
Cc1ccc(F)cc1-c1ncc2c(=O)[nH]c(C3CN(Cc4ncccn4)CC3C)nn12 (single isomer, unassigned; (-)) [(−)-7-(5-fluoro-2-methylphenyl)-2-((3,4-trans)-4-methyl-1-(pyrimidin-2-ylmethyl)pyrrolidin-3-yl)imidazo[1,5-f][1,2,4]triazin-4(3H)-one] | 1000 to 10000 nM | 
CC1CN(CC2CC2)CC1c1nn2c(C3CCOCC3)ncc2c(=O)[nH]1 (single isomer, unassigned; (+)) [(+)-2-((3,4-trans)-1-(cyclopropylmethyl)-4-methylpyrrolidin-3-yl)-7-(tetrahydro-2H-pyran-4-yl)imidazo[5,1-f][1,2,4]triazin-4(3H)-one] |  | IC50: 1000 to 10000 nM
CC1CN(S(=O)(=O)c2ccc(C#N)cc2)CC1c1nn2c(C3CCOCC3)ncc2c(=O)[nH]1 (single isomer, unassigned; (+)) [(+)-4-(((3,4-trans)-3-methyl-4-(4-oxo-7-(tetrahydro-2H-pyran-4-yl)-3,4-dihydroimidazo[5,1-f][1,2,4]triazin-2-yl)pyrrolidin-1-yl)sulfonyl)benzonitrile] | > 10000 nM | 
CC1CN(Cc2ncc3ccccc3n2)CC1c1nn2c(C3CCOCC3)ncc2c(=O)[nH]1 (single isomer, unassigned; (+)) [(+)-2-((3,4-trans)-4-methyl-1-(quinazolin-2-ylmethyl)pyrrolidin-3-yl)-7-(tetrahydro-2H-pyran-4-yl)imidazo[5,1-f][1,2,4]triazin-4(3H)-one] | < 1000 nM | 
CC1CN(Cc2ccccc2)CC1c1nn2c(C3CCOC3)ncc2c(=O)[nH]1 (single isomer, unassigned; (-)) [(−)-2-(1-(3,4-trans)-benzyl-4-methylpyrrolidin-3-yl)-7-(tetrahydrofuran-3-yl)imidazo[5,1-f][1,2,4]triazin-4(3H)-one] | 1000 to 10000 nM | 
COc1cccc(CN2CC(C)C(c3nn4c(C5CCOCC5)ncc4c(=O)[nH]3)C2)n1 (single isomer, unassigned; (-)) [(−)-2-((3,4-trans)-1-((6-methoxypyridin-2-yl)methyl)-4-methylpyrrolidin-3-yl)-7-(tetrahydro-2H-pyran-4-yl)imidazo[5,1-f][1,2,4]triazin-4(3H)-one] | < 1000 nM | 
(−)-2-((3,4-trans)-1-benzyl-4-methylpyrrolidin-3-yl)-7-(piperidin-4-yl)imidazo[1,5-f][1,2,4]triazin-4(3H)-one | > 10000 nM | 
CCC(CC)c1ncc2c(=O)[nH]c(C3CN(Cc4ncccn4)CC3C)nn12 (single isomer, unassigned; (+)) [(+)-2-((3,4-trans)-4-methyl-1-(pyrimidin-2-ylmethyl)pyrrolidin-3-yl)-7-(pentan-3-yl)imidazo[5,1-f][1,2,4]triazin-4(3H)-one] |  | IC50: < 1000 nM
CC1CN(Cc2ccccn2)CC1c1nn2c(C3CCOCC3)ncc2c(=O)[nH]1 (single isomer, unassigned; (-)) [(−)-2-((3,4-trans)-4-methyl-1-(pyridin-2-ylmethyl)pyrrolidin-3-yl)-7-(tetrahydro-2H-pyran-4-yl)imidazo[5,1-f][1,2,4]triazin-4(3H)-one] | < 1000 nM | 
Cc1cnccc1-c1ncc2c(=O)[nH]c(C3CN(Cc4nc5ccccn5n4)CC3C)nn12 (single isomer, unassigned; (+)) [(+)-2-((3,4-trans)-1-([1,2,4]triazolo[1,5-a]pyridin-2-ylmethyl)-4-methylpyrrolidin-3-yl)-7-(3-methylpyridin-4-yl)imidazo[5,1-f][1,2,4]triazin-4(3H)-one] |  | IC50 [3]: < 1000 nM
CC1CN(Cc2ccccc2)CC1c1nn2c(C3CCN(C(=O)OC(C)(C)C)CC3)ncc2c(=O)[nH]1 (single isomer, unassigned; (+)) [(+)-tert-butyl 4-(2-((3,4-trans)-1-benzyl-4-methylpyrrolidin-3-yl)-4-oxo-3,4-dihydroimidazo[1,5-f][1,2,4]triazin-7-yl)piperidine-1-carboxylate] | 1000 to 10000 nM | 
CC1CN(Cc2nc(C(F)(F)F)cc(C(F)(F)F)n2)CC1c1nn2c(C3CCOCC3)ncc2c(=O)[nH]1 (single isomer, unassigned; (+)) [(+)-2-((3,4-trans)-1-((4,6-bis(trifluoromethyl)pyrimidin-2-yl)methyl)-4-methylpyrrolidin-3-yl)-7-(tetrahydro-2H-pyran-4-yl)imidazo[5,1-f][1,2,4]triazin-4(3H)-one] |  | IC50 [1]: < 1000 nM
Cc1ccc(F)cc1-c1ncc2c(=O)[nH]c(C3CN(Cc4ccccc4)CC3C)nn12 (single isomer, unassigned; (+)) [(+)-2-((3,4-trans)-1-benzyl-4-methylpyrrolidin-3-yl)-7-(5-fluoro-2-methylphenyl)imidazo[1,5-f][1,2,4]triazin-4(3H)-one] | < 1000 nM | 
CC1CN(C(=O)c2ncccn2)CC1c1nn2c(C3CCOCC3)ncc2c(=O)[nH]1 (single isomer, unassigned; (+)) [(+)-2-((3,4-trans)-4-methyl-1-(pyrimidine-2-carbonyl)pyrrolidin-3-yl)-7-(tetrahydro-2H-pyran-4-yl)imidazo[5,1-f][1,2,4]triazin-4(3H)-one] | 1000 to 10000 nM | 
CC1CN(Cc2ccccc2F)CC1c1nn2c(C3CCOCC3)ncc2c(=O)[nH]1 (single isomer, unassigned; (-)) [(−)-2-((3,4-trans)-1-(2-fluorobenzyl)-4-methylpyrrolidin-3-yl)-7-(tetrahydro-2H-pyran-4-yl)imidazo[5,1-f][1,2,4]triazin-4(3H)-one] | < 1000 nM | 
CC1CN(S(=O)(=O)c2cccc(F)c2)CC1c1nn2c(C3CCOCC3)ncc2c(=O)[nH]1 (single isomer, unassigned; (+)) [(+)-2-((3,4-trans)-1-((3-fluorophenyl)sulfonyl)-4-methylpyrrolidin-3-yl)-7-(tetrahydro-2H-pyran-4-yl)imidazo[5,1-f][1,2,4]triazin-4(3H)-one] | < 1000 nM | 
CC1CN(CC2CCN(C)CC2)CC1c1nn2c(C3CCOCC3)ncc2c(=O)[nH]1 (single isomer, unassigned; (+)) [(+)-2-((3,4-trans)-4-methyl-1-((1-methylpiperidin-4-yl)methyl)pyrrolidin-3-yl)-7-(tetrahydro-2H-pyran-4-yl)imidazo[5,1-f][1,2,4]triazin-4(3H)-one] |  | IC50: 1000 to 10000 nM
CC1CN(C(=O)c2ccccc2C#N)CC1c1nn2c(C3CCOCC3)ncc2c(=O)[nH]1 (single isomer, unassigned; (-)) [(−)-2-((3,4-trans)-3-methyl-4-(4-oxo-7-(tetrahydro-2H-pyran-4-yl)-3,4-dihydroimidazo[5,1-f][1,2,4]triazin-2-yl)pyrrolidine-1-carbonyl)benzonitrile] | < 1000 nM | 
CC1CN(C(C)c2ccccc2)CC1c1nn2c(C3CCOCC3)ncc2c(=O)[nH]1 (single isomer, unassigned; (-)) | < 1000 nM | 
CC1CN(CC(F)(F)F)CC1c1nn2c(C3CCOCC3)ncc2c(=O)[nH]1 (single isomer, unassigned; (+)) [(+)-2-((3,4-trans)-4-methyl-1-(2,2,2-trifluoroethyl)pyrrolidin-3-yl)-7-(tetrahydro-2H-pyran-4-yl)imidazo[5,1-f][1,2,4]triazin-4(3H)-one] |  | IC50 [1]: < 1000 nM
CC1CN(CC2CCNCC2)CC1c1nn2c(C3CCOCC3)ncc2c(=O)[nH]1 (single isomer, unassigned; (+)) |  | IC50: < 1000 nM
CC1CN(S(=O)(=O)c2cccnc2)CC1c1nn2c(C3CCOCC3)ncc2c(=O)[nH]1 (single isomer, unassigned; (+)) [(+)-2-((3,4-trans)-4-methyl-1-(pyridin-3-ylsulfonyl)pyrrolidin-3-yl)-7-(tetrahydro-2H-pyran-4-yl)imidazo[5,1-f][1,2,4]triazin-4(3H)-one] | < 1000 nM | 
CC1CN(Cc2nc3ccccn3n2)CC1c1nn2c(CC(F)(F)F)ncc2c(=O)[nH]1 (stereo not drawn) [2-((3,4-trans)-1-([1,2,4]triazolo[1,5-a]pyridin-2-ylmethyl)-4-methylpyrrolidin-3-yl)-7-(2,2,2-trifluoroethyl)imidazo[5,1-f][1,2,4]triazin-4(3H)-one] |  | IC50 [3]: < 1000 nM
CC1CN(Cc2cn3ccccc3n2)CC1c1nn2c(-c3cccc(F)c3)ncc2c(=O)[nH]1 (single isomer, unassigned; (+)) [(+)-7-(3-fluorophenyl)-2-((3,4-trans)-1-(imidazo[1,2-a]pyridin-2-ylmethyl)-4-methylpyrrolidin-3-yl)imidazo[5,1-f][1,2,4]triazin-4(3H)-one] |  | IC50: < 1000 nM
